Values after ≈ are worked out from the molar mass of the structure shown.
Tests used:
[1] = Hemolytic activity against New Zealand white rabbit RBC assessed as hemoglobin release measured after 1 hr; assay type: ADME, cell-based, Oryctolagus cuniculus, Erythrocyte; conditions: red blood cells
[2] = tested on: Mycolicibacterium smegmatis; assay: Antimycobacterial activity against Mycobacterium smegmatis MC2 155 after 24 hrs by broth dilution assay; assay type: functional; conditions: str. MC2 155, 24 h
Staphylococcus aureus [3] = assay: Antibacterial activity against methicillin-resistant Staphylococcus aureus isolate DM21455; assay type: functional
Staphylococcus aureus [4] = assay: Antibacterial activity against Staphylococcus aureus isolate DM4001; assay type: functional
Mycobacteroides chelonae = assay: Antimycobacterial activity against Mycobacterium chelonae by CLSI method; assay type: functional
[5] = tested on: Mycolicibacterium smegmatis; assay: Antimycobacterial activity against Mycobacterium smegmatis by CLSI method; assay type: functional
[6] = tested on: Mycobacterium tuberculosis; assay: Antimycobacterial activity against Mycobacterium tuberculosis H37Ra measured after 7 days by alamar blue assay; assay type: functional; conditions: 168 h
Mycobacterium xenopi = assay: Antimycobacterial activity against Mycobacterium xenopi by CLSI method; assay type: functional
[7] = tested on: Mycobacterium intracellulare; assay: Antimycobacterial activity against Mycobacterium intracellulare by CLSI method; assay type: functional
[8] = Cytotoxicity against human MRC5 SV2 cells measured after 72 hrs by resazurin based fluorescence assay; assay type: toxicity, cell-based
[9] = Cytotoxicity against human corneal fibroblasts assessed as reduction in ATP level measured after 4 hrs by Celltiter-Glo luminescent assay; assay type: toxicity, Corneal fibroblast
[10] = Cytotoxicity against human corneal fibroblasts assessed as increase in LDH level measured after 4 hrs by Cytotox-one […] assay; assay type: toxicity, Corneal fibroblast
[11] = Drug metabolism in rat liver microsomes at 1 uM preincubated for 5 mins followed by NADPH addition measured up to 30 mins by LC-MS/MS method; assay type: ADME; conditions: read-out: Drug metabolism
[12] = Half life in rat liver microsomes at 1 uM preincubated for 5 mins followed by NADPH addition measured by LC-MS/MS method; assay type: ADME
CYP3A4 = CYP3A4 (Homo sapiens, UniProt P08684); assay: Inhibition of CYP3A4 in human liver microsomes at 10 uM using midazolam as substrate preincubated for 5 min followed by NADPH addition measured after 10 mins by LC-MS/MS method relative to control; assay type: ADME; conditions: probe midazolam
CYP2D6 = CYP2D6 (Homo sapiens, UniProt P10635); assay: Inhibition of CYP2D6 in human liver microsomes at 10 uM using bufuralol as substrate preincubated for 5 min followed by NADPH addition measured after 10 mins by LC-MS/MS method relative to control; assay type: ADME; conditions: probe bufuralol
CYP2C19 = CYP2C19 (Homo sapiens, UniProt P33261); assay: Inhibition of CYP2C19 in human liver microsomes at 10 uM using omeprazole as substrate preincubated for 5 min followed by NADPH addition measured after 10 mins by LC-MS/MS method relative to control; assay type: ADME; conditions: probe omeprazole
[13] = Selectivity index, ratio of CC50 for human corneal fibroblasts assessed as reduction in ATP level to MIC90 for Mycobacterium smegmatis MC2 155
[14] = Selectivity index, ratio of CC50 for human corneal fibroblasts assessed as reduction in ATP level to MIC90 for Mycobacterium bovis BCG ATCC 35734
[15] = tested on: Mycolicibacterium smegmatis; assay: Antimycobacterial activity against Mycobacterium smegmatis MC2 155 assessed as inhibition of respiratory ATP synthesis by measuring ATP level at 4 times MIC measured after 1 hr by luciferase reporter gene assay (reference value: 90.6%); assay type: functional, str. MC2 155; set-up: scale not given: the % may be the effect or the level left
[16] = tested on: Mycolicibacterium smegmatis; assay: Antimycobacterial activity against Mycobacterium smegmatis MC2 155 assessed as inhibition of respiratory ATP synthesis by measuring ATP level at 2 times MIC measured after 3 hrs by luciferase reporter gene assay (reference value: 158.3%); assay type: functional, str. MC2 155; set-up: scale not given: the % may be the effect or the level left
[17] = tested on: Mycolicibacterium smegmatis; assay: Antimycobacterial activity against Mycobacterium smegmatis MC2 155 assessed as inhibition of respiratory ATP synthesis by measuring ATP level at 4 times MIC measured after 6 hrs by luciferase reporter gene assay (reference value: 152%); assay type: functional, str. MC2 155; set-up: scale not given: the % may be the effect or the level left
[18] = tested on: Mycolicibacterium smegmatis; assay: Antimycobacterial activity against Mycobacterium smegmatis MC2 155 assessed as inhibition of respiratory ATP synthesis by measuring ATP level at 4 times MIC measured after 6 hrs by luciferase reporter gene assay (reference value: 212.7%); assay type: functional, str. MC2 155; set-up: scale not given: the % may be the effect or the level left

Sequence of CYP2D6 (P10635 whole entry): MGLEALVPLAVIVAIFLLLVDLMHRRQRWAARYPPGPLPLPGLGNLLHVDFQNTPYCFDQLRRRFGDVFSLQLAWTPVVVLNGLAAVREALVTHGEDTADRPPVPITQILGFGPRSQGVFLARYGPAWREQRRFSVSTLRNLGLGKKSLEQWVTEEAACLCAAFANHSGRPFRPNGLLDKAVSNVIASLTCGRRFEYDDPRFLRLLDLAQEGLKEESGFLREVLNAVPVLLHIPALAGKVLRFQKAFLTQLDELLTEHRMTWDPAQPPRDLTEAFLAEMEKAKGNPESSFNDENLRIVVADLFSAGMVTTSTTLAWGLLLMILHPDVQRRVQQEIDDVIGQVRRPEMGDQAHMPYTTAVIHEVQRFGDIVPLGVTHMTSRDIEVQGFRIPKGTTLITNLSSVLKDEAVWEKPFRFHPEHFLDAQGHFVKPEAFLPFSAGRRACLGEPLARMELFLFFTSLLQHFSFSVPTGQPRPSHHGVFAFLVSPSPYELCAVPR
Sequence of CYP3A4 (P08684 whole entry): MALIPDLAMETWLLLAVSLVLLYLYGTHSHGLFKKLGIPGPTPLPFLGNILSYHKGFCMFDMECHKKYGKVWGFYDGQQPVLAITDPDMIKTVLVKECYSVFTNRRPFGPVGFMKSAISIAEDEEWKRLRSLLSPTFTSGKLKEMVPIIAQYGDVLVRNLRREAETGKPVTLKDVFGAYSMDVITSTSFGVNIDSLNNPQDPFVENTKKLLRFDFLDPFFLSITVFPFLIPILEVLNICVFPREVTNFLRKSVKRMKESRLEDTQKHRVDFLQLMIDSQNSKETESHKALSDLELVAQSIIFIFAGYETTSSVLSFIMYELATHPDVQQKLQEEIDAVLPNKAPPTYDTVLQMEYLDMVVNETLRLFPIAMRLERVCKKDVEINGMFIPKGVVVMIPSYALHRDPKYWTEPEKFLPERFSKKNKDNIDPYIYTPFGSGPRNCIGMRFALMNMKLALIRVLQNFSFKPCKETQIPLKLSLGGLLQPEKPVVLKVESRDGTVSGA
Sequence of CYP2C19 (P33261 whole entry): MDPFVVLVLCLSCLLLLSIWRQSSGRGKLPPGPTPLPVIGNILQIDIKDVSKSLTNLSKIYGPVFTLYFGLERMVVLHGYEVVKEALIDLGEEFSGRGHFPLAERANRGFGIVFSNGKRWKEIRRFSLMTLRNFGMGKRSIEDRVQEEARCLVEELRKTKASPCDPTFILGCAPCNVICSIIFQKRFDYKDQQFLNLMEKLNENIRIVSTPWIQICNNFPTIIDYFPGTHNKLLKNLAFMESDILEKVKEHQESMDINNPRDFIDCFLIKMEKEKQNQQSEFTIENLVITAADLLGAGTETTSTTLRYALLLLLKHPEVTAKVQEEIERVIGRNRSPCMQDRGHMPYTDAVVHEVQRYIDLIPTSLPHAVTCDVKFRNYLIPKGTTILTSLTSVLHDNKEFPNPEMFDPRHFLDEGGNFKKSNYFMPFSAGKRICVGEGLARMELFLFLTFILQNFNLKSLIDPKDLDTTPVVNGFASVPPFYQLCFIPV

With `COc1c(OCC(O)CNCCN)cc2oc3cc(OCC(O)CNCCN)c(CC=C(C)C)c(O)c3c(=O)c2c1CC=C(C)C` (stereo not drawn) the HC50 at 1 h [1] was 125 µM, the MIC90 [2] was greater than 30 µM and the MIC (Staphylococcus aureus [3]) was 5 µM (≈ 3.21 µg/mL). For the same compound, the MIC (Staphylococcus aureus [4]) was 10 µM (≈ 6.43 µg/mL).

For `COc1c(O)cc2oc3cc(O)c(CC=C(C)C)c(O)c3c(=O)c2c1CC=C(C)C` [MANGOSTIN], the MIC (Mycobacteroides chelonae) was 3.7 µM (≈ 1.52 µg/mL), the MIC [5] was 3.7 µM (≈ 1.52 µg/mL) and the MIC [6] was 6.25 µg/mL (≈ 15.2 µM). For the same compound, the MIC (Mycobacterium xenopi) was 3.7 µM (≈ 1.52 µg/mL), the MIC [7] was 3.7 µM (≈ 1.52 µg/mL) and the CC50 at 72 h [8] was 7.5 µM.

Work on `COC(=O)C(CCCNC(=N)N)NC(=O)COc1cc2oc3cc(OCC(=O)NC(CCCNC(=N)N)C(=O)OC)c(OC)c(CC=C(C)C)c3c(=O)c2c(O)c1CC=C(C)C` (stereo not drawn) yielded an HC50 at 1 h [1] of 309 µM, an MIC90 [2] greater than 30 µM and an MIC (Staphylococcus aureus [3]) of 2.5 µM (≈ 2.17 µg/mL). For the same compound, the MIC (Staphylococcus aureus [4]) was 3.5 µM (≈ 3.03 µg/mL), the CC50 at 4 h [9] was 13.7 µM and the CC50 at 4 h [10] was 13.4 µM. For the same compound, the metabolised at 0.5 h, 1 µM [11] was 12.6%, the half-life at 1 µM [12] was greater than 30 min and the inhibition at 10 min, 10 µM (CYP3A4) was 36%. The inhibition at 10 min, 10 µM (CYP2D6) was 11% and the inhibition at 10 min, 10 µM (CYP2C19) was 1%.

For `COc1c(OCC(O)CNCCNC(=N)N)cc2oc3cc(OCC(O)CNCCNC(=N)N)c(CC=C(C)C)c(O)c3c(=O)c2c1CC=C(C)C` (stereo not drawn), the HC50 at 1 h [1] was 141 µM, the MIC90 [2] was greater than 30 µM and the MIC (Staphylococcus aureus [3]) was 5 µM (≈ 3.63 µg/mL). For the same compound, the MIC (Staphylococcus aureus [4]) was 5 µM (≈ 3.63 µg/mL).

With `CCN(CC)CCCCOc1cc2oc3cc(OCCCCN(CC)CC)c(OC)c(CC=C(C)C)c3c(=O)c2c(OCCCCN(CC)CC)c1CC=C(C)C` the HC50 at 1 h [1] was greater than 252 µM, the MIC90 [2] was greater than 30 µM and the CC50 at 4 h [9] was 43.7 µM. The CC50 at 4 h [10] was greater than 150 µM, the metabolised at 0.5 h, 1 µM [11] was 11.6% and the half-life at 1 µM [12] was greater than 30 min. For the same compound, the inhibition at 10 min, 10 µM (CYP3A4) was 40%, the inhibition at 10 min, 10 µM (CYP2D6) was 30% and the inhibition at 10 min, 10 µM (CYP2C19) was 10%.

For `CCCN(CCC)CC(O)COc1cc2oc3cc(OCC(O)CN(CCC)CCC)c(OC)c(CC=C(C)C)c3c(=O)c2c(O)c1CC=C(C)C` (stereo not drawn), the HC50 at 1 h [1] was greater than 276 µM and the MIC90 [2] was greater than 30 µM.

`COc1c(OCC(O)CNCCNCCNCCN)cc2oc3cc(OCC(O)CNCCNCCNCCN)c(CC=C(C)C)c(O)c3c(=O)c2c1CC=C(C)C` (stereo not drawn) showed an HC50 at 1 h [1] of 155 µM, an MIC90 [2] greater than 30 µM and an MIC (Staphylococcus aureus [3]) of 15 µM (≈ 12.2 µg/mL). The MIC (Staphylococcus aureus [4]) was 15 µM (≈ 12.2 µg/mL).

Work on `CCN(CC)CCCCOc1ccc2c(=O)c3c(O)cc(OCCCCN(CC)CC)cc3oc2c1` yielded an HC50 at 1 h [1] greater than 401 µM and an MIC90 [2] greater than 30 µM.

With `COc1c(OCCCCN(C)C)cc2oc3cc(OCCCCN(C)C)c(CCC(C)C)c(O)c3c(=O)c2c1CCC(C)C` the MIC90 [2] was 6.4 µM (≈ 3.92 µg/mL).

For `CCN(CC)CCCCCCCOc1cc2oc3cc(OCCCCCCCN(CC)CC)c(OC)c(CC=C(C)C)c3c(=O)c2c(O)c1CC=C(C)C`, the HC50 at 1 h [1] was 86 µM, the MIC90 [2] was 6.4 µM (≈ 4.79 µg/mL) and the CC50 at 4 h [9] was 95.1 µM. It also gave a CC50 at 4 h [10] greater than 150 µM, a metabolised at 0.5 h, 1 µM [11] of 13.9% and a half-life at 1 µM [12] greater than 30 min. It also gave an inhibition at 10 min, 10 µM (CYP3A4) of 3%, an inhibition at 10 min, 10 µM (CYP2D6) of 6% and an inhibition at 10 min, 10 µM (CYP2C19) of 16%. For the same compound, the “Selectivity Index” value [13] was 15 - 40 and the “Selectivity Index” value [14] was 15 - 40.

Work on `CN[C@@H]1[C@H](O[C@H]2[C@H](O[C@H]3[C@H](O)[C@@H](O)[C@H](N=C(N)N)[C@@H](O)[C@@H]3N=C(N)N)O[C@@H](C)[C@]2(O)C=O)O[C@@H](CO)[C@H](O)[C@H]1O` [STREPTOMYCIN] yielded an MIC90 [2] of 0.625 µM (≈ 0.363 µg/mL), an Activity [15] of 114.4% and an Activity [16] of 75.7%. For the same compound, the Activity [17] was 59.9% and the Activity [18] was 75.7%.

For `CCCCN(CC)CCCCOc1cc2oc3cc(OCCCCN(CC)CCCC)c(OC)c(CC=C(C)C)c3c(=O)c2c(O)c1CC=C(C)C`, the HC50 at 1 h [1] was greater than 277 µM and the MIC90 [2] was greater than 30 µM.

Work on `COc1c(OCC(O)CNC(CO)(CO)CO)cc2oc3cc(OCC(O)CNC(CO)(CO)CO)c(CC=C(C)C)c(O)c3c(=O)c2c1CC=C(C)C` (stereo not drawn) yielded an HC50 at 1 h [1] of 33.2 µM and an MIC90 [2] of 26 µM (≈ 19.9 µg/mL).
